Data as given in the supplement of paper PMC13207355.

Key:
Conditions in all cases: exposure time: 72 h
E21 [1] = patient-derived glioblastoma stem cells of mesenchymal subtype; assay: surviving fraction (nuclei count normalised to DMSO); higher = more cells surviving (less toxic)
E57 [2] = patient-derived glioblastoma stem cells of mesenchymal subtype; assay: as above
E13 [3] = patient-derived glioblastoma stem cells of classical subtype; assay: as above
E31 [4] = patient-derived glioblastoma stem cells of proneural subtype; assay: as above
E34 [5] = patient-derived glioblastoma stem cells of proneural subtype; assay: as above
FT3469 [6] = normal neural stem cell line; assay: as above
E28 [7] = patient-derived glioblastoma stem cells of classical subtype; assay: as above
E21 [8] = assay: phenotypic distance (Euclidean, principal components) from DMSO controls (arbitrary units); higher = stronger morphological change
E57 [9] = assay: as above
E13 [10] = assay: as above
E31 [11] = assay: as above
E34 [12] = assay: as above
FT3469 [13] = assay: as above
E28 [14] = assay: as above
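Throughout, for phenotypic distance (Euclidean, principal components) from DMSO controls: cell Painting imaging in 384-well plates, CellProfiler features reduced to at least 20 principal components, Euclidean distance versus same-plate DMSO vehicle wells (0.1% v/v), median over six images per well.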
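Throughout, for surviving fraction (nuclei count normalised to DMSO): nuclei counted by high-content imaging of Hoechst-stained cells in laminin-coated 384-well plates, relative to 0.1% DMSO vehicle wells, with staurosporine as cell-death control.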

Oc1ccc(OCc2ccccc2)cc1 [Monobenzone]
Conditions	phenotypic distance	surviving fraction
E13 [3], 4.1 nM	–	1.02
E13 [3], 12.3 nM	–	1.11
E13 [3], 37 nM	–	0.916
E13 [3], 111.1 nM	–	1.04
E13 [3], 333.3 nM	–	0.962
E13 [3], 1000 nM	–	1.06
E13 [3], 3000 nM	–	0.738
E13 [10], 4.1 nM	0.73	–
E13 [10], 12.3 nM	0.686	–
E13 [10], 37 nM	0.829	–
E13 [10], 111.1 nM	0.608	–
E13 [10], 333.3 nM	0.563	–
E13 [10], 1000 nM	0.694	–
E13 [10], 3000 nM	1.62	–
E21 [1], 4.1 nM	–	1.01
E21 [1], 12.3 nM	–	1.02
E21 [1], 37 nM	–	0.985
E21 [1], 111.1 nM	–	0.974
E21 [1], 333.3 nM	–	1.01
E21 [1], 1000 nM	–	0.951
E21 [1], 3000 nM	–	0.932
E21 [8], 4.1 nM	0.533	–
E21 [8], 12.3 nM	0.297	–
E21 [8], 37 nM	0.463	–
E21 [8], 111.1 nM	0.324	–
E21 [8], 333.3 nM	0.511	–
E21 [8], 1000 nM	0.562	–
E21 [8], 3000 nM	1.35	–
E28 [7], 4.1 nM	–	1.09
E28 [7], 12.3 nM	–	1.17
E28 [7], 37 nM	–	1.12
E28 [7], 111.1 nM	–	1.02
E28 [7], 333.3 nM	–	1.04
E28 [7], 1000 nM	–	1.04
E28 [7], 3000 nM	–	0.875
E28 [14], 4.1 nM	0.962	–
E28 [14], 12.3 nM	0.487	–
E28 [14], 37 nM	0.802	–
E28 [14], 111.1 nM	0.466	–
E28 [14], 333.3 nM	0.474	–
E28 [14], 1000 nM	0.692	–
E28 [14], 3000 nM	1.42	–
E31 [4], 4.1 nM	–	1.17
E31 [4], 12.3 nM	–	1.1
E31 [4], 37 nM	–	1.24
E31 [4], 111.1 nM	–	1.19
E31 [4], 333.3 nM	–	1.04
E31 [4], 1000 nM	–	1.06
E31 [4], 3000 nM	–	0.603
E31 [11], 4.1 nM	0.6	–
E31 [11], 12.3 nM	0.685	–
E31 [11], 37 nM	0.704	–
E31 [11], 111.1 nM	0.686	–
E31 [11], 333.3 nM	0.51	–
E31 [11], 1000 nM	0.575	–
E31 [11], 3000 nM	1.87	–
E34 [5], 4.1 nM	–	1.13
E34 [5], 12.3 nM	–	0.972
E34 [5], 37 nM	–	0.966
E34 [5], 111.1 nM	–	1.13
E34 [5], 333.3 nM	–	0.984
E34 [5], 1000 nM	–	1.12
E34 [5], 3000 nM	–	1.07
E34 [12], 4.1 nM	0.726	–
E34 [12], 12.3 nM	0.858	–
E34 [12], 37 nM	0.945	–
E34 [12], 111.1 nM	0.661	–
E34 [12], 333.3 nM	0.606	–
E34 [12], 1000 nM	0.28	–
E34 [12], 3000 nM	0.624	–
E57 [2], 4.1 nM	–	1.07
E57 [2], 12.3 nM	–	1.06
E57 [2], 37 nM	–	1.14
E57 [2], 111.1 nM	–	1.05
E57 [2], 333.3 nM	–	0.979
E57 [2], 1000 nM	–	0.963
E57 [2], 3000 nM	–	0.842
E57 [9], 4.1 nM	0.522	–
E57 [9], 12.3 nM	0.58	–
E57 [9], 37 nM	1.19	–
E57 [9], 111.1 nM	1.86	–
E57 [9], 333.3 nM	0.673	–
E57 [9], 1000 nM	0.736	–
E57 [9], 3000 nM	3.91	–
FT3469 [6], 4.1 nM	–	1.35
FT3469 [6], 12.3 nM	–	1.12
FT3469 [6], 37 nM	–	1.14
FT3469 [6], 111.1 nM	–	0.963
FT3469 [6], 333.3 nM	–	1.02
FT3469 [6], 1000 nM	–	0.999
FT3469 [6], 3000 nM	–	0.689
FT3469 [13], 4.1 nM	1.23	–
FT3469 [13], 12.3 nM	0.456	–
FT3469 [13], 37 nM	0.649	–
FT3469 [13], 111.1 nM	0.576	–
FT3469 [13], 333.3 nM	1.04	–
FT3469 [13], 1000 nM	0.884	–
FT3469 [13], 3000 nM	1.07	–
